Measurements published in patent US20250066386A1, “INHIBITORS OF KRAS” (BIOMEA FUSION, INC., priority 2022, published 2025).
Read-outs that look alike come from different tables or passages of the source.

Test system: human KRAS G12C mutated cell line MIA PaCa-2
Test: KRas G12C in vitro inhibitory activity: cell proliferation, CellTiter-Glo
Format: cell-based
Conditions: Homo sapiens
Excerpt: The present example evaluates the ability of compounds provided herein to inhibit proliferation of KRAS mutant cells.
The inhibitory effect on cell proliferation was investigated in the human KRAS G12C mutated cell line MIA PaCa-2 (Yunis et al., 1977, Int. J. Cancer 19(1):128-135; ATCC catalog no. CRL-1420). Cells were maintained in RPMI-1640 medium (ThermoFisher catalog no. 61870036) supplemented with 10% of Heat Inactivated FBS (ThermoFisher catalog no. A31605) and 1% Pen-Strep (ThermoFisher catalog no. 10378016) and cultured at 37° C. in a humidified incubator with 5% CO2. Cells were grown by adhering to culture flasks, and maintained at 70%-80% confluency.
ATP is present in all metabolically active cells and is considered as a marker for viable cells. The number of metabolically active live cells in culture was determined using the CellTiter-Glo kit (Promega catalog no. G7572), an ATP monitoring system based on the production of luminescence by the reaction of ATP with added UltraGlo® recombinant luciferase (Kawano et al., 2016, PLOS One, 8; 11(7):e0158888), according to the supplier's experimental recommendations. The cell proliferation assay was based on a 96 well plate format.
Test compounds were dissolved at 10 mM in DMSO (Sigma catalog no. D8418; purity >99.9%) and stored at −20° C. Eight concentrations of test compound were assessed in duplicate in an individual test occasion in parallel in the selected cell lines. MRTX-849 and AMG-510 were used as reference compounds and tested in duplicate at eight concentrations. 100% of proliferation is represented by the untreated cells (0.2% DMSO).
On the day of the experiment (TO), cells were detached with TrypLE (ThermoFisher catalog no. 12604054), quantified using the cell viability analyser NucleoCounter (Chemometec NC-200) and resuspended in fresh medium at a cell density of about 5000 cells per 200 μL medium. 200 μL of cell suspension were added to each well of a 96 well plate.
Two hours after seeding cells, compounds were added at desired concentrations using a D300e compound dispenser (Life Sciences Tecan D300) with shaking after each compound addition. Assay plates were incubated at 37° C. in a humidified incubator with 5% CO2.
(§1) To measure 3 day inhibition of cell proliferation on day 3 (T3), assay plates were equilibrated to room temperature for approximately 15 min, and the Promega CellTiterGlo® reagent was added at 40 μL/well. Contents were mixed for 5 min on an orbital shaker to induce cell lysis, and then incubated at room temperature for an additional 10 min in the dark to stabilize the luminescent signal. Luminescence was read using a GloMax GM300 plate reader (Promega) using the luminescence for 96 well plate standard protocol.
as §1, with “measure 7” for “measure 3”, “(T3), 150 μL of growth media was removed from each well of the assay plates and replaced with 150 uL fresh growth media, and fresh compounds added using a D300e compound dispenser (Life Sciences Tecan D300) at desired concentrations with shaking between each compound addition. Assay plates were incubated at 37° C. in a humidified incubator with 5% CO2. On day 7 (T7)” for “(T3),”
Data was expressed as % of inhibition compared to the 0.2% DMSO negative no drug control, and is calculated as follows: % inhibition=100−[(RLU sample)×100/(RLU average controls*)], where * indicates the average for 0.2% DMSO.
Results were analyzed by GraphPad (Prism) and IC50 values were calculated by non-linear regression using four parameter-logistic equation. […]

[1] = MIA PaCa-2, 72 h, 3 day inhibition of cell proliferation, CellTiter-Glo luminescence, read-out: MIA PaCa-2 Day 3 IC50
[2] = MIA PaCa-2, 7 day inhibition of cell proliferation, medium and compound renewed on day 3, CellTiter-Glo luminescence, read-out: MIA PaCa-2 Day 7 IC50

Structure (SMILES) | IC50 [1] | IC50 [2]
CCn1c(-c2cccnc2[C@H](C)OC)c2c3cc(ccc31)-c1cccc(c1)C[C@H](NC(=O)[C@H](C(C)C)N(C)C(=O)[C@H]1CCN(C(=O)C#CCN(C)C)C1)C(=O)N1CC[C@H](C1)C(=O)OCC(C)(C)C2 (atropisomer, axis not shown) [Compound 103, (3S)-1-(4-(dimethylamino)but-2-ynoyl)-N-((2S)-1-(((6^3R,4S)-1^1-ethyl-1^2-(2-((S)-1-methoxyethyl)pyridin-3-yl)-10,10-dimethyl-5,7-dioxo-1^1H-8-oxa-1(5,3)-indola-6(1,3)-pyrrolidina-2(1,3)-benzenacycloundecaphane-4-yl)amino)-3-methyl-1-oxobutan-2-yl)-N-methylpyrrolidine-3-carboxamide] | > 100 nM | –
CCn1c(-c2cccnc2[C@H](C)OC)c2c3cc(ccc31)-c1cccc(c1)C[C@H](NC(=O)[C@H](C(C)C)N(C)C(=O)[C@H]1CCN(C(=O)C#CCN3CCOCC3)C1)C(=O)N1CCC[C@@H](CC(=O)OC(C)(C)C2)C1 [Compound 107] | – | > 100 nM
CCn1c(-c2cccnc2[C@H](C)OC)c2c3cc(ccc31)-c1cccc(c1)C[C@H](NC(=O)[C@H](C(C)C)N(C)C(=O)[C@H]1CCN(C(=O)C#CCN3CCOCC3)C1)C(=O)N1CCC[C@H](CC(=O)OC(C)(C)C2)C1 [Compound 108, (3S)—N-((2S)-1-(((6^3R,4S)-1^1-ethyl-1^2-(2-((S)-1-methoxyethyl)pyridin-3-yl)-10,10-dimethyl-5,8-dioxo-1^1H-9-oxa-1(5,3)-indola-6(1,3)-piperidina-2(1,3)-benzenacycloundecaphane-4-yl)amino)-3-methyl-1-oxobutan-2-yl)-N-methyl-1-(4-morpholinobut-2-ynoyl)pyrrolidine-3-carboxamide] | > 100 nM | –

Results, then the compound that gave them:

IC50 [1] | IC50 [2] | Structure (SMILES)
10 to 100 nM | 10 to 100 nM | CCn1c(-c2cccnc2[C@H](C)OC)c2c3cc(ccc31)-c1csc(n1)C[C@H](NC(=O)[C@H](C(C)C)N(C)C(=O)N1[C@H](C)CN(CC#CC(=O)N(C)C)C[C@H]1C)C(=O)N1CCC[C@H](N1)C(=O)OCC(C)(C)C2 [Compound 105, (2R,6R)-4-(4-(dimethylamino)-4-oxobut-2-yn-1-yl)-N-((2S)-1-(((6^3S,4S,Z)-1^1-ethyl-1^2-(2-((S)-1-methoxyethyl)pyridin-3-yl)-10,10-dimethyl-5,7-dioxo-6^1,6^2,6^3,6^4,6^5,6^6-hexahydro-1^1H-8-oxa-2(4,2)-thiazola-1(5,3)-indola-6(1,3)-pyridazinacycloundecaphane-4-yl)amino)-3-methyl-1-oxobutan-2-yl)-N,2,6-trimethylpiperazine-1-carboxamide]
10 to 100 nM | 10 to 100 nM | CCn1c(-c2cccnc2[C@H](C)OC)c2c3cc(ccc31)-c1cccc(c1)C[C@H](NC(=O)[C@H](C(C)C)N(C)C(=O)[C@H]1CCN(C/C=C/C(=O)N(C)C)C1)C(=O)N1CCC[C@H](N1)C(=O)OCC(C)(C)C2 (atropisomer, axis not shown) [Compound 101, (3S)-1-((E)-4-(dimethylamino)-4-oxobut-2-en-1-yl)-N-((2S)-1-(((6^3S,4S)-1^1-ethyl-1^2-(2-((S)-1-methoxyethyl)pyridin-3-yl)-10,10-dimethyl-5,7-dioxo-6^1,6^2,6^3,6^4,6^5,6^6-hexahydro-1^1H-8-oxa-1(5,3)-indola-6(1,3)-pyridazina-2(1,3)-benzenacycloundecaphane-4-yl)amino)-3-methyl-1-oxobutan-2-yl)-N-methylpyrrolidine-3-carboxamide]
